In US9758561B2 (priority 2014, dated 2017):
Converted amounts (≈) assume the structure as drawn. Where two headings read alike, the source gives them in different places.

Key:
[1] = biological target: T1, human GLP-1 receptor (Homo sapiens, UniProt P43220); assay: cAMP response of HEK-293 cells stably expressing human GLP-1 receptor (HTRF); format: cell-based; settings: Table 6; read-out: EC50 hGLP-1R
T1 construct: expressed in transfected cells; host or cells: HEK-293
Experimental: (§1) For preparation, cells were split into T175 culture flasks and grown overnight to near confluency in medium (DMEM/10% FBS). Medium was then removed and cells washed with PBS lacking calcium and magnesium, followed by proteinase treatment with accutase (Sigma-Aldrich cat. no. A6964). Detached cells were washed and resuspended in assay buffer (1×HBSS; 20 mM HEPES, 0.1% BSA, 2 mM IBMX) and cellular density determined. They were then diluted to 400000 cells/ml and 25 μl-aliquots dispensed into the wells of 96-well plates. For measurement, 25 μl of test compound in assay buffer was added to the wells, followed by incubation for 30 minutes at room temperature. […] Potencies of peptidic compounds at the GLP-1, glucagon and GIP receptors were determined by exposing cells expressing human glucagon receptor (hGlucagon R), human GIP receptor (hGIP-R) or human GLP-1 receptor (hGLP-1R) to the listed compounds at increasing concentrations and measuring the formed cAMP as described in Methods.

[2] = Solubility testing in buffer (HPLC-UV); format: physicochemical
Experimental: Prior to the testing of solubility and stability of a peptide batch, its purity (HPLC-UV) was determined. […] Therefore, solutions from solid samples were prepared in different buffer systems with a concentration of 10 mg/mL compound based on the previously determined % purity. HPLC-UV was performed after 2 h of gentle agitation from the supernatant, which was obtained by 20 min of centrifugation at 4500 rpm. […] This analysis also served as starting point (t0) for the stability testing.

[3] = Stability testing in solution, 7 days at 40° C. (HPLC-UV); format: physicochemical; settings: for Stability pH 4.5: pH 4.5, 7 days at 40° C. in solution; for Stability pH 7.4: pH 7.4, 7 days at 40° C. in solution
Experimental: After that time course, the sample was centrifuged for 20 min at 4500 rpm and 0.2 μL of the supernatant were analysed with HPLC-UV.
For determination of the amount of the remaining peptide, the peak areas of the target compound at t0 and t7 were compared, resulting in “% remaining peptide”, following the equation % remaining peptide=[(peak area peptide t7)×100]/peak area peptide t0.
The stability is expressed as “% remaining peptide”.

[4] = biological target: T2, human glucagon receptor (Homo sapiens, UniProt P47871); assay: cAMP response of HEK-293 cells stably expressing human glucagon receptor (HTRF); format: cell-based; settings: Table 8; comparison Aib vs. Lys in position 27; read-out: EC50 hGlucagon-R
T2 construct: expressed in transfected cells; host or cells: HEK-293
Experimental: as §1

[5] = pH 4.5, target concentration 10 mg/ml, read-out: solubility pH 4.5
[6] = pH 7.4, target concentration 10 mg/ml, read-out: solubility pH 7.4

T1 sequence (P43220 24-463): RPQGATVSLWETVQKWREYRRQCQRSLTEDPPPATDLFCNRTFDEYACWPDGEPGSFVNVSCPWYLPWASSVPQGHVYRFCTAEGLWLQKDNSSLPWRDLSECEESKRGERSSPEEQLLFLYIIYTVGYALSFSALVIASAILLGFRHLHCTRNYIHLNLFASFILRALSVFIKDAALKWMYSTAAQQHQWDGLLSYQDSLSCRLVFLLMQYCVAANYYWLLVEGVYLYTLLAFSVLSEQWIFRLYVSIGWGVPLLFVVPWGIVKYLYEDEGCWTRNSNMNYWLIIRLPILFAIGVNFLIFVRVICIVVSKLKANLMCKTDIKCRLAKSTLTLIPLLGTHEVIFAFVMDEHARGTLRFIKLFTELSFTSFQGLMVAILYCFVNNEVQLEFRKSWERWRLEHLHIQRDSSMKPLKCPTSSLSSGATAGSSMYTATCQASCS
T2 sequence (P47871 26-477): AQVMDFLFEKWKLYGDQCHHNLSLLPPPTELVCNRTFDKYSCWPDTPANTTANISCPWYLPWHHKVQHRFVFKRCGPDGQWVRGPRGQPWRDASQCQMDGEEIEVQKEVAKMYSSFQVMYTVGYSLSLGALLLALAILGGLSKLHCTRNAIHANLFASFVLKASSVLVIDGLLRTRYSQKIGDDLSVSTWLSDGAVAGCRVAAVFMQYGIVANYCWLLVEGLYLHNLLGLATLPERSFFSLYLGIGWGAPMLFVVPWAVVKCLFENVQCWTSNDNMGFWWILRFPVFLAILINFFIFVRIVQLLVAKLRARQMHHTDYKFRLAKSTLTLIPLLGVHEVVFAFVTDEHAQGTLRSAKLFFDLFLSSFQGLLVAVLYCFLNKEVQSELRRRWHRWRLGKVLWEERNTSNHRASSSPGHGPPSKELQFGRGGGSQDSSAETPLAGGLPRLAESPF

SMILES	EC50 [1] [pM]	solubility at 2 h [2, 5] [µg/mL]	solubility at 2 h [2, 6] [µg/mL]	Stability pH 4.5 [3] [% remaining peptide]	Stability pH 7.4 [3] [% remaining peptide]	EC50 [4] [pM]
CCCCCCCCCCCCCCCC(=O)N[C@@H](CCC(=O)N[C@@H](CCC(=O)NCCCC[C@H](NC(=O)[C@H](CCC(N)=O)NC(=O)[C@H](CCCCN)NC(=O)[C@H](CO)NC(=O)[C@H](CC(C)C)NC(=O)[C@H](CC(=O)O)NC(=O)[C@H](CO)NC(=O)[C@@H](NC(=O)[C@H](Cc1ccccc1)NC(=O)[C@@H](NC(=O)CNC(=O)[C@H](Cc1c[nH]cn1)NC(=O)[C@@H](CO)NC(=O)[C@@H](N)Cc1c[nH]cn1)[C@@H](C)O)[C@@H](C)O)C(=O)N[C@@H](CC(=O)O)C(=O)N[C@@H](CCC(=O)O)C(=O)N[C@@H](CCC(=O)O)C(=O)N[C@@H](C)C(=O)N[C@@H](C)C(=O)N[C@@H](CCCNC(=N)N)C(=O)N[C@@H](CC(C)C)C(=O)N[C@@H](Cc1ccccc1)C(=O)N[C@H](C(=O)N[C@@H](CCC(=O)O)C(=O)N[C@@H](Cc1c[nH]c2ccccc12)C(=O)N[C@@H](CC(C)C)C(=O)NC(C)(C)C(=O)N[C@@H](CCCCN)C(=O)N[C@H](C)C(=O)NCC(=O)N1CCC[C@H]1C(=O)N[C@@H](CO)C(=O)N[C@@H](CO)C(=O)NCC(=O)N[C@@H](C)C(=O)N1CCC[C@H]1C(=O)N1CCC[C@H]1C(=O)N1CCC[C@H]1C(=O)N[C@@H](CO)C(N)=O)[C@@H](C)CC)C(=O)O)C(=O)O [SEQ ID NO: 26, H-dSer-H-G-T-F-T-S-D-L-S-K-Q-K(γE-γE-x53)-D-E-E-A-A-R-L-F-I-E-W-L-Aib-K-dAla-G-P-S-S-G-A-P-P-P-S-NH2]	2	6800 (≈ 1460 µM)	6700 (≈ 1440 µM)	92.7	96.6	–
CCCCCCCCCCCCCCCC(=O)N[C@@H](CCC(=O)N[C@@H](CCC(=O)NCCCC[C@H](NC(=O)[C@H](CCC(N)=O)NC(=O)[C@H](CCCCN)NC(=O)[C@H](CO)NC(=O)[C@H](CC(C)C)NC(=O)[C@H](CC(=O)O)NC(=O)[C@H](CO)NC(=O)[C@@H](NC(=O)[C@H](Cc1ccccc1)NC(=O)[C@@H](NC(=O)CNC(=O)[C@H](Cc1c[nH]cn1)NC(=O)[C@@H](CO)NC(=O)[C@@H](N)Cc1c[nH]cn1)[C@@H](C)O)[C@@H](C)O)C(=O)N[C@@H](CCC(=O)O)C(=O)N[C@@H](CCC(=O)O)C(=O)N[C@@H](CCC(=O)O)C(=O)N[C@@H](C)C(=O)N[C@@H](C)C(=O)N[C@@H](CCCNC(=N)N)C(=O)N[C@@H](CC(C)C)C(=O)N[C@@H](Cc1ccccc1)C(=O)N[C@H](C(=O)N[C@@H](CCC(=O)O)C(=O)N[C@@H](Cc1c[nH]c2ccccc12)C(=O)N[C@@H](CC(C)C)C(=O)N[C@@H](CCCCN)C(=O)N[C@@H](C)C(=O)NCC(=O)NCC(=O)N1CCC[C@H]1C(=O)N[C@@H](CO)C(=O)N[C@@H](CO)C(=O)NCC(=O)N[C@@H](C)C(=O)N1CCC[C@H]1C(=O)N1CCC[C@H]1C(=O)N1CCC[C@H]1C(=O)N[C@@H](CO)C(N)=O)[C@@H](C)CC)C(=O)O)C(=O)O [SEQ ID NO: 30, H-dSer-H-G-T-F-T-S-D-L-S-K-Q-K(γE-γE-x53)-EEEAARLFIEWLKAGGPSSGAPPPS-NH2, reference compound]	–	–	–	–	–	5.1
CCCCCCCCCCCCCCCC(=O)N[C@@H](CCC(=O)N[C@@H](CCC(=O)NCCCC[C@H](NC(=O)[C@H](CCC(N)=O)NC(=O)[C@H](CCCCN)NC(=O)[C@H](CO)NC(=O)[C@H](CC(C)C)NC(=O)[C@H](CC(=O)O)NC(=O)[C@H](CO)NC(=O)[C@@H](NC(=O)[C@H](Cc1ccccc1)NC(=O)[C@@H](NC(=O)CNC(=O)[C@H](CCC(N)=O)NC(=O)[C@@H](CO)NC(=O)[C@@H](N)Cc1c[nH]cn1)[C@@H](C)O)[C@@H](C)O)C(=O)N[C@@H](CC(=O)O)C(=O)N[C@@H](CCC(=O)O)C(=O)N[C@@H](CCC(=O)O)C(=O)N[C@@H](C)C(=O)N[C@@H](C)C(=O)N[C@@H](CCCNC(=N)N)C(=O)N[C@@H](CC(C)C)C(=O)N[C@@H](Cc1ccccc1)C(=O)N[C@H](C(=O)N[C@@H](CCC(=O)O)C(=O)N[C@@H](Cc1c[nH]c2ccccc12)C(=O)N[C@@H](CC(C)C)C(=O)NC(C)(C)C(=O)N[C@@H](CCCCN)C(=O)N[C@H](C)C(=O)NCC(=O)N1CCC[C@H]1C(=O)N[C@@H](CO)C(=O)N[C@@H](CO)C(=O)NCC(=O)N[C@@H](C)C(=O)N1CCC[C@H]1C(=O)N1CCC[C@H]1C(=O)N1CCC[C@H]1C(=O)N[C@@H](CO)C(N)=O)[C@@H](C)CC)C(=O)O)C(=O)O [SEQ ID NO: 24, H-dSer-Q-G-T-F-T-S-D-L-S-K-Q-K(γE-γE-x53)-D-E-E-A-A-R-L-F-I-E-W-L-Aib-K-dAla-G-P-S-S-G-A-P-P-P-S-NH2]	2.4	> 8000	7000 (≈ 1500 µM)	81.8	95.4	–
CCCCCCCCCCCCCCCC(=O)N[C@@H](CCC(=O)N[C@@H](CCC(=O)NCCCC[C@H](NC(=O)[C@H](CCC(N)=O)NC(=O)[C@H](CCCCN)NC(=O)[C@H](CO)NC(=O)[C@H](CC(C)C)NC(=O)[C@H](CC(=O)O)NC(=O)[C@H](CO)NC(=O)[C@@H](NC(=O)[C@H](Cc1ccccc1)NC(=O)[C@@H](NC(=O)CNC(=O)[C@H](CCC(N)=O)NC(=O)[C@@H](CO)NC(=O)[C@@H](N)Cc1c[nH]cn1)[C@@H](C)O)[C@@H](C)O)C(=O)N[C@@H](CC(=O)O)C(=O)N[C@@H](CCC(=O)O)C(=O)N[C@@H](CCC(=O)O)C(=O)N[C@@H](C)C(=O)N[C@@H](C)C(=O)N[C@@H](CCCNC(=N)N)C(=O)N[C@@H](CC(C)C)C(=O)N[C@@H](Cc1ccccc1)C(=O)N[C@H](C(=O)N[C@@H](CCC(=O)O)C(=O)N[C@@H](Cc1c[nH]c2ccccc12)C(=O)N[C@@H](CC(C)C)C(=O)NC(C)(C)C(=O)N[C@@H](C)C(=O)N[C@H](C)C(=O)NCC(=O)N1CCC[C@H]1C(=O)N[C@@H](CO)C(=O)N[C@@H](CO)C(=O)NCC(=O)N[C@@H](C)C(=O)N1CCC[C@H]1C(=O)N1CCC[C@H]1C(=O)N1CCC[C@H]1C(=O)N[C@@H](CO)C(N)=O)[C@@H](C)CC)C(=O)O)C(=O)O [SEQ ID NO: 12, H-dSer-Q-G-T-F-T-S-D-L-S-K-Q-K(γE-γE-x53)-D-E-E-A-A-R-L-F-I-E-W-L-Aib-A-dAla-G-P-S-S-G-A-P-P-P-S-NH2]	–	2000 (≈ 435 µM)	> 8000	85.6	90.6	–
CCCCCCCCCCCCCCCC(=O)N[C@@H](CCC(=O)N[C@@H](CCC(=O)NCCCC[C@H](NC(=O)[C@H](CCC(N)=O)NC(=O)[C@H](CCCCN)NC(=O)[C@H](CO)NC(=O)[C@H](CC(C)C)NC(=O)[C@H](CC(=O)O)NC(=O)[C@H](CO)NC(=O)[C@@H](NC(=O)[C@H](Cc1ccccc1)NC(=O)[C@@H](NC(=O)CNC(=O)[C@H](CCC(N)=O)NC(=O)[C@@H](CO)NC(=O)[C@@H](N)Cc1c[nH]cn1)[C@@H](C)O)[C@@H](C)O)C(=O)N[C@@H](CC(=O)O)C(=O)N[C@@H](CCC(=O)O)C(=O)N[C@@H](CCC(=O)O)C(=O)N[C@@H](C)C(=O)N[C@H](C(=O)N[C@@H](CCCNC(=N)N)C(=O)N[C@@H](CC(C)C)C(=O)N[C@@H](Cc1ccccc1)C(=O)N[C@H](C(=O)N[C@@H](CCC(=O)O)C(=O)N[C@@H](Cc1c[nH]c2ccccc12)C(=O)N[C@@H](CC(C)C)C(=O)NC(C)(C)C(=O)N[C@@H](C)C(=O)NCC(=O)NCC(=O)N1CCC[C@H]1C(=O)N[C@@H](CO)C(=O)N[C@@H](CO)C(=O)NCC(=O)N[C@@H](C)C(=O)N1CCC[C@H]1C(=O)N1CCC[C@H]1C(=O)N1CCC[C@H]1C(=O)N[C@@H](CO)C(N)=O)[C@@H](C)CC)C(C)C)C(=O)O)C(=O)O [SEQ ID NO: 17, H-dSer-Q-G-T-F-T-S-D-L-S-K-Q-K(γE-γE-x53)-D-E-E-A-V-R-L-F-I-E-W-L-Aib-A-G-G-P-S-S-G-A-P-P-P-S-NH2]	2.4	–	–	–	–	–
